Laboratory results: ChEMBL document CHEMBL1201862, “PubChem BioAssay data set” (2004)
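Tested at 5 concentrations; 48 h exposure; 96-well plates; endpoints linearly interpolated, else capped at highest concentration. GI50: concentration for 50% inhibition of growth.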 Active and inactive are the calls of the source. No stated cut-off is given here; in the data, active = GI50 up to about 1.1 µM and inactive = higher.

How the values were obtained:
Assay in all cases: NCI anticancer screen, dose series, 48 h
SK-OV-3 = tested on: SK-OV-3
UACC-62 = tested on: UACC-62
SK-MEL-2 = tested on: SK-MEL-2
A549 = tested on: A549
SF-295 = tested on: SF-295
UO-31 = tested on: UO-31
SNB-19 = tested on: SNB-19
HCC 2998 = tested on: HCC 2998
ACHN = tested on: ACHN
CCRF-CEM = tested on: CCRF-CEM
HCT-15 = tested on: HCT-15
NCI-H226 = tested on: NCI-H226
HL-60 = tested on: HL-60
HT-29 = tested on: HT-29
NCI-H460 = tested on: NCI-H460
RPMI-8226 = tested on: RPMI-8226
U-251 = tested on: U-251
COLO 205 = tested on: COLO 205
HCT-116 = tested on: HCT-116
HOP-92 = tested on: HOP-92

Compound | GI50 (SK-OV-3) | GI50 (UACC-62) | GI50 (SK-MEL-2) | GI50 (A549) | GI50 (SF-295) | GI50 (UO-31) | GI50 (SNB-19) | GI50 (HCC 2998) | GI50 (ACHN) | GI50 (CCRF-CEM) | GI50 (HCT-15) | GI50 (NCI-H226) | GI50 (HL-60) | GI50 (HT-29) | GI50 (NCI-H460) | GI50 (RPMI-8226) | GI50 (U-251) | GI50 (COLO 205) | GI50 (HCT-116) | GI50 (HOP-92)
COc1ccc(-c2c(C#N)c(N)n(C3OCC(O)C(O)C3O)c(=S)c2C#N)cc1 (stereo not given) | > 100 µM (inactive) | > 100 µM (inactive) | 21.6 µM (inactive) | > 100 µM (inactive) | > 100 µM (inactive) | > 100 µM (inactive) | > 100 µM (inactive) | > 100 µM (inactive) | > 100 µM (inactive) | > 100 µM (inactive) | > 100 µM | > 100 µM (inactive) | > 100 µM (inactive) | > 100 µM (inactive) | > 100 µM (inactive) | > 100 µM (inactive) |  |  |  | 
Nc1nc(=O)c(/N=N/c2ccc([As](=O)(O)O)cc2)c(N)[nH]1 | > 100 µM (inactive) | > 100 µM (inactive) | > 100 µM (inactive) | > 100 µM (inactive) | > 100 µM (inactive) | > 100 µM (inactive) | > 100 µM (inactive) | > 100 µM (inactive) | > 100 µM (inactive) | > 100 µM (inactive) | > 100 µM | > 100 µM (inactive) | > 100 µM (inactive) | > 100 µM (inactive) | > 100 µM (inactive) | > 100 µM (inactive) | > 100 µM (inactive) | > 100 µM (inactive) | > 100 µM (inactive) | 
C=CCOC(=O)C1=C(CCC[C@@H](C)O[Si](C)(C)C(C)(C)C)N=C(N)N2[C@H](CCO)CC[C@@H]12 | 14.1 µM (inactive) | 15.8 µM (inactive) | 15.3 µM (inactive) | 10.3 µM (inactive) | 12.6 µM (inactive) | 16.1 µM (inactive) | 15.5 µM (inactive) | 18.7 µM (inactive) | 17.7 µM (inactive) |  | 17.7 µM | 18.5 µM (inactive) |  |  | 12.9 µM (inactive) | 9.44 µM (inactive) | 12.3 µM (inactive) | 10.9 µM (inactive) | 8.28 µM (inactive) | 13.6 µM (inactive)
COc1cccc(NC(=O)CC(=O)n2nc(C)c(/N=N/c3ccccc3)c2C)c1 | > 100 µM (inactive) | 79.1 µM (inactive) |  | > 100 µM (inactive) | > 100 µM (inactive) | 65.6 µM (inactive) | > 100 µM (inactive) | > 100 µM (inactive) | > 100 µM (inactive) |  |  | 28.5 µM (inactive) |  | > 100 µM (inactive) |  | > 100 µM (inactive) | > 100 µM (inactive) | > 100 µM (inactive) | > 100 µM (inactive) | > 100 µM (inactive)
CCOC(=O)C(N=C(c1ccccc1)c1ccccc1)N(C(=O)OC(C)(C)C)C(=O)OC(C)(C)C (stereo not given) | > 100 µM (inactive) | > 100 µM (inactive) | > 100 µM (inactive) | > 100 µM (inactive) | > 100 µM (inactive) | > 100 µM (inactive) | > 100 µM (inactive) | > 100 µM (inactive) | > 100 µM (inactive) |  | > 100 µM | > 100 µM (inactive) |  | > 100 µM (inactive) |  | 64.3 µM (inactive) | > 100 µM (inactive) | > 100 µM (inactive) | > 100 µM (inactive) | 7.45 µM (inactive)
CCOC(=O)COc1cc(-c2ccccc2F)nc2cc3c(cc12)OCO3 | > 100 µM (inactive) | > 100 µM (inactive) | > 100 µM (inactive) | > 100 µM (inactive) | > 100 µM (inactive) |  |  | > 100 µM (inactive) | > 100 µM (inactive) | 23.2 µM (inactive) | 39.9 µM | > 100 µM (inactive) |  | > 100 µM (inactive) |  | 42 µM (inactive) | 93.5 µM (inactive) | > 100 µM (inactive) | 72.3 µM (inactive) | 19.7 µM (inactive)
O=C1C(C(O)(C(F)(F)Cl)C(F)(F)Cl)CCCC1C(O)(C(F)(F)Cl)C(F)(F)Cl (stereo not given) | > 10 µM (inactive) | > 10 µM (inactive) | > 10 µM (inactive) | > 10 µM (inactive) | > 10 µM (inactive) |  | > 10 µM (inactive) | > 10 µM (inactive) | > 10 µM (inactive) |  | > 10 µM | > 10 µM (inactive) |  | > 10 µM (inactive) | > 10 µM (inactive) |  | > 10 µM (inactive) | > 10 µM (inactive) | > 10 µM (inactive) | 5.11 µM (inactive)
c1ccc2c(c1)N=C(c1ccc3ccccc3c1)CC(c1cccc3ccccc13)S2 (stereo not given) | > 100 µM (inactive) | 21 µM (inactive) | > 100 µM (inactive) | 48 µM (inactive) | 47.1 µM (inactive) | 59.7 µM (inactive) | 46.8 µM (inactive) | 15.1 µM (inactive) | 38.5 µM (inactive) | 12.6 µM (inactive) | 21.3 µM | 45.4 µM (inactive) | 15.1 µM (inactive) | 30.2 µM (inactive) | 29.6 µM (inactive) | 11.2 µM (inactive) | 60.1 µM (inactive) | 68.7 µM (inactive) |  | 
CCOC(=O)NNC(=O)NCc1cccc(CNC(=O)NNC(=O)OCC)c1 | > 100 µM (inactive) | > 100 µM (inactive) | > 100 µM (inactive) | > 100 µM (inactive) |  | > 100 µM (inactive) | > 100 µM (inactive) | > 100 µM (inactive) |  | > 100 µM (inactive) | > 100 µM | > 100 µM (inactive) | > 100 µM (inactive) | > 100 µM (inactive) | > 100 µM (inactive) | > 100 µM (inactive) | > 100 µM (inactive) | > 100 µM (inactive) | > 100 µM (inactive) | 
COc1cc(CC(C)NC(C)=O)cc(OC)c1 (stereo not given) | > 100 µM (inactive) | > 100 µM (inactive) | > 100 µM (inactive) | > 100 µM (inactive) | > 100 µM (inactive) | > 100 µM (inactive) | > 100 µM (inactive) | > 100 µM (inactive) | > 100 µM (inactive) | > 100 µM (inactive) | > 100 µM | > 100 µM (inactive) | > 100 µM (inactive) | > 100 µM (inactive) | > 100 µM (inactive) | > 100 µM (inactive) | > 100 µM (inactive) | > 100 µM (inactive) | > 100 µM (inactive) | 
CC(C)C(O)(C(=O)OCN1C(=O)C2C3C=CC(C2C1=O)C1C2C(=O)N(COC(=O)C(O)(C(C)C)C(C)O)C(=O)C2C31)C(C)O (stereo not given) | > 100 µM (inactive) | > 100 µM (inactive) | > 100 µM (inactive) | > 100 µM (inactive) | > 100 µM (inactive) | > 100 µM (inactive) | > 100 µM (inactive) | > 100 µM (inactive) | > 100 µM (inactive) | > 100 µM (inactive) | > 100 µM | > 100 µM (inactive) | > 100 µM (inactive) | > 100 µM (inactive) | > 100 µM (inactive) | > 100 µM (inactive) | > 100 µM (inactive) | > 100 µM (inactive) | > 100 µM (inactive) | 
COC(=O)Cn1c(=O)oc2nc(-c3ccccc3)cc(C(F)(F)F)c21 | > 100 µM (inactive) | > 100 µM (inactive) | > 100 µM (inactive) | 82 µM (inactive) | 45.3 µM (inactive) | > 100 µM (inactive) | > 100 µM (inactive) | > 100 µM (inactive) | > 100 µM (inactive) |  | > 100 µM | 35.8 µM (inactive) |  | 32.8 µM (inactive) | > 100 µM (inactive) | 27.5 µM (inactive) | 61.2 µM (inactive) | > 100 µM (inactive) | 42.9 µM (inactive) | 27.2 µM (inactive)
COC(=O)c1ccc(/N=N/N(C)CO)cc1 | 40.5 µM (inactive) | 51.1 µM (inactive) | > 100 µM (inactive) | > 100 µM (inactive) | 78 µM (inactive) | > 100 µM (inactive) | 86.5 µM (inactive) | > 100 µM (inactive) | 80.2 µM (inactive) | > 100 µM (inactive) | > 100 µM | > 100 µM (inactive) | > 100 µM (inactive) | > 100 µM (inactive) | > 100 µM (inactive) | > 100 µM (inactive) | 48.6 µM (inactive) | > 100 µM (inactive) | > 100 µM (inactive) | 
COc1cc2c(c3nc4ccccc4nc13)-c1ccc(SC)c(=O)cc1[C@@H](NC(C)=O)CC2 | 0.266 µM (active) | 0.0373 µM (active) |  | 0.377 µM (active) | 0.216 µM (active) | 6.3 µM (inactive) | 0.0475 µM (active) | 0.0935 µM (active) | 1.15 µM (inactive) | 0.0601 µM (active) | 1.23 µM | 0.135 µM (active) |  | 0.0364 µM (active) | 0.0893 µM (active) | 0.0387 µM (active) | 0.0345 µM (active) | 0.0262 µM (active) | 0.0372 µM (active) | 0.149 µM (active)
COP(=O)(Cc1ccccc1)Cc1ccccc1 | > 100 µM (inactive) | > 100 µM (inactive) | > 100 µM (inactive) | > 100 µM (inactive) | > 100 µM (inactive) | > 100 µM (inactive) | > 10 µM (inactive) | > 100 µM (inactive) | > 100 µM (inactive) | > 100 µM (inactive) | > 100 µM | > 100 µM (inactive) | > 100 µM (inactive) | > 100 µM (inactive) | > 100 µM (inactive) | > 100 µM (inactive) | > 100 µM (inactive) | > 100 µM (inactive) | > 100 µM (inactive) | 
COc1ccc(OC)c2c(C(C)=O)cccc12 | > 100 µM (inactive) | > 100 µM (inactive) |  | > 100 µM (inactive) | > 100 µM (inactive) | > 100 µM (inactive) | > 100 µM (inactive) | > 100 µM (inactive) | > 100 µM (inactive) | > 100 µM (inactive) | > 100 µM | 46.2 µM (inactive) | 85.1 µM (inactive) |  | > 100 µM (inactive) | > 100 µM (inactive) | > 100 µM (inactive) | > 100 µM (inactive) | > 100 µM (inactive) | 
